Assay [1] addresses T1, N-terminal domain of MLH1 (Homo sapiens, UniProt P40692).
T1 construct: by surface plasmon resonance to the N-terminal domain of MLH1
T1 sequence (P40692 15-340 limits assumed): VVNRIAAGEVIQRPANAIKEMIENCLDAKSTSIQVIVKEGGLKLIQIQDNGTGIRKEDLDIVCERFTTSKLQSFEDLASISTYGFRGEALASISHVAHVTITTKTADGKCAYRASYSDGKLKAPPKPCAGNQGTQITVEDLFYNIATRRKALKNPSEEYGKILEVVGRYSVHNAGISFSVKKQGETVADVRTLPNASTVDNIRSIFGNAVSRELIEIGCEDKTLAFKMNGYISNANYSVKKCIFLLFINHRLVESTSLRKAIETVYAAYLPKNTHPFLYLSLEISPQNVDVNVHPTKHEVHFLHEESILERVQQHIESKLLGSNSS
Briefly: Surface plasmon resonance binding to N-terminal domain of MLH1. The source says:
(§1) These probes are therefore unsuitable for use as fluorescence polarisation screening tools.

The target in assay [2] is T2, MLH1 (Homo sapiens, UniProt P40692).
T2 sequence (P40692 15-340 limits assumed): T1 sequence (P40692 15-340 limits assumed)
Briefly: Fluorescence polarisation assay of commercially available ATP-derived fluorescent probes, according to the type of protocol exemplified. The assay is classed as binding. To be noted: substance used as the fluorescent probe. The method, then:
as §1
An 11 point 1 in 2 serial dilution of protein (either recombinant N-terminal PMS2 (residues 1-365) or recombinant N-terminal MLH1 (residues 15-340)) in assay buffer (25 mM HEPES, pH 7.5, 250 mM NaCl, 10 mM MgCl2, 0.01% Triton X-100, 5 mM Dithiothreitol) was constructed in a clear polypropylene plate (Greiner Bio-One, item number 784201). The top concentration of the serial dilution was 2 μM. The 12th concentration point was buffer only (no protein control).
The serial dilution was used as the 2× protein and 20 μL was added to a Black Fluotrac 200 384-well medium binding plate (Greiner Bio-One, item number 781076). Plates were centrifuged for 1 minute at 250×g and were incubated at room temperature for 30 minutes prior to the addition of 20 μL of 2× (either 5 nM or 2 nM) of probe in assay buffer (prepared from a 100 μM DMSO stock) with a MultiDrop Combi (ThermoFisher).
Compound plates were centrifuged for 1 minute at 250×g for 1 minute and were incubated at room temperature for 1 hour before being read on a PheraStar FSX (fitted with 384-well aperture spoon and appropriate FP module). The gain and focus were adjusted before each plate was read so that the polarisation of the no protein control was equal to 35 mP. Data was plotted and analysed in GraphPad Prism 8.1.0 (FIGS. 6-9).
A general note: Fluorescence polarisation rises when a labelled molecule tumbles more slowly, as on binding a larger partner.

Assay [3] deals with T3, recombinant N-terminal MLH1 (residues 15-340) (Homo sapiens, UniProt P40692).
T3 construct: recombinant N-terminal MLH1 (residues 15-340) in assay buffer
T3 sequence (P40692 15-340): T1 sequence (P40692 15-340 limits assumed)
Briefly: Assay A: Fluorescence Polarisation Assay for MLH1 (displacement of Example 1 probe). The assay is classed as binding. The settings on record: Assay Protocol A; 100 nM N-terminal MLH1, 5 nM Example 1 probe; FIG. 10. As for the experimental part:
Assay A: Fluorescence Polarisation Assay for MLH1
Test compounds, as 10 mM DMSO stocks, were dispensed into a Black Fluotrac 200 384-well medium binding plate (Greiner Bio-One, item number 781076) using a Labcyte Echo acoustic liquid handler. Test compounds were added to wells in columns 1-22 whilst DMSO was added to wells in columns 23 and 24 in order to normalise the plate. 20 μL of a 2× solution (200 nM) of recombinant N-terminal MLH1 (residues 15-340) in assay buffer (25 mM HEPES, pH 7.5, 250 mM NaCl, 10 mM MgCl2, 0.01% Triton X-100, 5 mM Dithiothreitol) was added to all wells in columns 1-23 and 20 μL assay buffer was added to all wells in column 24 using a MultiDrop Combi (ThermoFisher). […] Compound plates were centrifuged for 1 minute at 250×g for 1 minute and were incubated at room temperature for 1 hour before being read on a PheraStar FSX (fitted with 384-well aperture spoon and 590 675 675 FP optic module). The gain and focus were adjusted before each plate was read so that the polarisation of a no enzyme control (column 24) was equal to 35 mP. […]

Assay [4] addresses T4, recombinant N-terminal PMS2 (residues 1-365) (Homo sapiens, UniProt P54278).
T4 construct: recombinant N-terminal PMS2 (residues 1-365) in assay buffer
T4 sequence (P54278 1-365): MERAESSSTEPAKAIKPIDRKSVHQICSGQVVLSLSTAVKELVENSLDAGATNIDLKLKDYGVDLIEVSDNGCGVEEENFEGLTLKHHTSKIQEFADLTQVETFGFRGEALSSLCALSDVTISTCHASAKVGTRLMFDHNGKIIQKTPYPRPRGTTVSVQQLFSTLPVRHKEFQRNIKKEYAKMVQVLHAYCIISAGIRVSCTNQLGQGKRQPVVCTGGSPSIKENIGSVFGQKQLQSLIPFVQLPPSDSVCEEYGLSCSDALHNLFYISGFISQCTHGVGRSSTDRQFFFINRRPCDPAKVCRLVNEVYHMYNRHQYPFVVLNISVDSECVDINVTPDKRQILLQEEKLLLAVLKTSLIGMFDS
Briefly: Assay C: Fluorescence Polarisation Assay for PMS2 (displacement of Example 5 probe). Type of assay: binding. The settings on record: Assay Protocol C; 10 nM N-terminal PMS2, 5 nM Example 5 probe; FIG. 11. The method, then:
Assay C: Fluorescence Polarisation Assay for PMS2
Test compounds, as 10 mM DMSO stocks, were dispensed into a Black Fluotrac 200 384 well medium binding plate (Greiner Bio-One, item number 781076) using a Labcyte Echo acoustic liquid handler. For single point screening, test compounds were added to wells in columns 1-22 whilst DMSO was added to wells in columns 23 and 24 in order to normalise the plate. For potency determination, serial dilutions of test compounds were added to wells in columns 3-22 and DMSO volume was normalised across the plate.
20 μL of a 2× solution (20 nM) of recombinant N-terminal PMS2 (residues 1-365) in assay buffer (25 mM HEPES, pH 7.5, 250 mM NaCl, 10 mM MgCl2, 0.01% Triton X-100, 5 mM Dithiothreitol) was added to all wells in columns 2-23 for potency determination or columns 1-23 for single point screening. 20 μL assay buffer was added to all wells in columns 1 and 24 (column 24 only for single point screening) using a MultiDrop Combi (ThermoFisher). […]
Compound plates were centrifuged for 1 minute at 250×g and were incubated at room temperature for 1 hour before being read on a PheraStar FSX (fitted with 384-well aperture spoon and 540 590 590 FP optic module). The gain and focus were adjusted before each plate was read so that the polarisation of a no enzyme control (column 24) was equal to 35 mP. […]

Counter-ions that a name gives are not always drawn.

As for `CC1=CC(C)=[N+]2C1=Cc1ccc(CNC(=O)CSP(=O)(O)OP(=O)(O)OP(=O)(O)OC[C@H]3O[C@@H](n4cnc5c(N)ncnc54)[C@H](O)[C@@H]3O)n1[B-]2(F)F` [BODIPY-FL-ATP-gamma-S], in assay [1], the “binding by surface plasmon resonance” value was “very weak binding”. Also, in assay [2], the “signal in fluorescence polarisation assay” value is recorded as “no signal”.

In general, IC50 refers to the concentration that gives 50% inhibition. For `CC(C)c1cc(C(=O)N2Cc3ccc(CN4CCNCC4)cc3C2)c(O)cc1O` [compound AB, (2,4-dihydroxy-5-isopropylphenyl)(5-(piperazin-1-ylmethyl)isoindolin-2-yl)methanone hydrochloride], the IC50 in assay [3] is 10.7 µM; in assay [4] it was 0.179 µM.

These data come from US12517130B2, “Isoindoline derivatives which bind to an ATP binding site” (NeoPhore Limited, priority 2020, dated 2026).
